Measured values published in patent US20010004643A1, “Pharmaceutical composition with sotalol combination and their use in treatment of cardiac ailments” (priority 1999, published 2001).
Marks after values point to notes of the source that are not given here.

Legend:
[1] = tested on: beta adrenergic blockade, isolated right auricle preparation of rabbit; test: Beta blocking potency (pA2 against isoprenaline) in isolated rabbit right auricle; details: isoprenaline chronotropic response, Schild's plot, listed as 3:1
Description: Estimation of the beta blockade of various ratios of d- and l- isomers of sotalol was carried out in the isolated right auricle preparation of rabbit. The spontaneously beating right atrium was dissected and mounted in a 20 ml tissue bath. The resting tension on the atria was set at 1 g. The contractions were recorded using a force displacement transducer. The spontaneous contractions of the right atria were recorded isometrically and the heart rate was obtained as a derived parameter using a ratemeter that gave the output in beats per minute. Six different ratios of d and l isomers were investigated (1:1, 2:1, 3:1, 4:1, 5:1 and 1:0). Dose-response-curves (DRC) for isoprenaline in the isolated atria, using the chronotropic response were determined by cumulative addition of isoprenaline. The pA2 values of each of the ratios were estimated using the classical Schild's plot (Schild, 1957) and the values are shown in Table 1.

[2] = tested on: ouabain induced arrhythmia (VT, VF, mortality); test: Ouabain induced arrhythmia model in guinea pig; format: in vivo; details: for actual incidence of mortality (value in parenthesis): 60 min; for actual incidence of mortality (value in parenthesis) / actual incidence of VF (value in parenthesis) / actual incidence of VT (value in parenthesis): number of animals of the group; for % INCIDENCE OF MORTALITY: mortality at 60 min; for deaths due to conduction block (60 min), actual incidence (value in parenthesis) / deaths due to tachyarrhythmia (60 min), actual incidence (value in parenthesis): number of animals; for % INCIDENCE OF VF / % INCIDENCE OF VT: ouabain 240 μg/kg in three doses, observed one hour; for DEATHS DUE TO CONDUCTION BLOCK (60 MIN) Percentage / DEATHS DUE TO TACHYARRHYTHMIA (60 MIN) Percentage: percentage deaths out of total mortality
Excerpt: Method: Guinea pigs (Dunken Hartley) of either sex weighing between 400 and 500 g were used for the study. The animals were anesthetized with urethane (1.25 g/kg. i.p.). The left common carotid artery and left jugular vein were cannulated for arterial blood pressure monitoring and intravenous access respectively. Lead II electrocardiogram, arterial blood pressure, mean arterial blood pressure (MABP), heart rate were monitored throughout the experiment.
After initial surgical preparations and allowing 30 minutes for the animal to stabilise the first dose of ouabain (90 μg/kg) was administered over a period of one minute. After the interval of thirty minutes, second dose of ouabain (60 μg/kg) was administered over a period of one minute. One minute after this dose, 0.5 ml saline (in control experiments) was administered over a period of one minute. After an interval of 10 minutes a third dose of ouabain (90 μg/kg) was administered over a period of one minute. […] The test compounds were administered to animals in test group in place of saline to evaluate their antiarrhythmic potential. From the ECG recordings, the incidence of VT, VF and mortality were recorded. The doses of ratios of sotalol isomers studied were 0.1, 0.5 and 2.5 mg/kg.
Interpretation of ECG recordings: Minor disturbance in rhythm was not considered while evaluating ventricular tachyarrhythmias. A run of more than 3 ventricular ectopic beats having wide QRS complexes associated with partial haemodynamic collapse was considered as Ventricular Tachycardia (VT). Total morphological irregularity of repetitive complexes for at least six cycles associated with complete haemodynamic collapse was considered as Ventricular Fibrillation (VF). Successful arrhythmia protection was defined as no occurrence of VT and VF from the injection of saline/test drug till the end of the experiment.
Statistics: Chi square test with continuity correction at 95% confidence limit was applied to find out the statistical significance between control and test groups for incidence of VT, VF and mortality. Whenever, any of the value in a cell was less than 5, Fischer's exact probability test was used.
Results: Different ratios of sotalol in the dose range from 0.02 mg/kg to 12.5 mg/kg were studied in individual groups of animals. In all 18 groups were studied and at least 6 animals were used in each group. In control animals ouabain 240 μg/kg in three divided doses induced reproducible ventricular tachyarrhythmias in guinea pigs. It was observed that ventricular arrhythmias appeared after the administration of the third dose. Guinea pigs which responded early i.e. before or within 1 min. of administration of the second dose, were considered early responders and were not included in the study. […] In the study, control experiments were carried out randomly interspersed in test groups. Among the 42 control animals the incidence of VT was 81%, incidence of VF was 71.4% and the incidence of mortality at 60 minutes was 61.9%.

SMILES: CC(C)NCC(O)c1ccc(NS(C)(=O)=O)cc1 (stereo not shown) [3:1 RATIO, N-[4-[1-hydroxy-2-[(1-methylethyl)amino]ethyl]phenyl] methane sulfonamide]
- pA2 Mean [1]: 6.15
- actual incidence of mortality (value in parenthesis) ([2]; 0.1 mg/kg): (2)
- % INCIDENCE OF MORTALITY ([2]; 0.1 mg/kg): 33.3%
- deaths due to conduction block (60 min), actual incidence (value in parenthesis) ([2]; 0.1 mg/kg): (1)
- deaths due to tachyarrhythmia (60 min), actual incidence (value in parenthesis) ([2]; 0.1 mg/kg): (1)
- actual incidence of VF (value in parenthesis) ([2]; 0.1 mg/kg): (4)
- actual incidence of VT (value in parenthesis) ([2]; 0.1 mg/kg): (4)
- % INCIDENCE OF VF ([2]; 0.1 mg/kg): 66.6%
- % INCIDENCE OF VT ([2]; 0.1 mg/kg): 66.6%
- DEATHS DUE TO CONDUCTION BLOCK (60 MIN) Percentage ([2]; 0.1 mg/kg): 50.0%
- DEATHS DUE TO TACHYARRHYTHMIA (60 MIN) Percentage ([2]; 0.1 mg/kg): 50.0%
- actual incidence of mortality (value in parenthesis) ([2]; 0.5 mg/kg): (3)
- protection against ouabain induced VT ([2]; 0.5 mg/kg, listed as 3:1 ratio (d:l)): showed protection
- % INCIDENCE OF MORTALITY ([2]; 0.5 mg/kg): 37.5%
- deaths due to conduction block (60 min), actual incidence (value in parenthesis) ([2]; 0.5 mg/kg): (3)
- deaths due to tachyarrhythmia (60 min), actual incidence (value in parenthesis) ([2]; 0.5 mg/kg): (0)*
- actual incidence of VF (value in parenthesis) ([2]; 0.5 mg/kg): (2)
- actual incidence of VT (value in parenthesis) ([2]; 0.5 mg/kg): (3)*
- % INCIDENCE OF VF ([2]; 0.5 mg/kg): 25.0%
- % INCIDENCE OF VT ([2]; 0.5 mg/kg): 37.5%
- DEATHS DUE TO CONDUCTION BLOCK (60 MIN) Percentage ([2]; 0.5 mg/kg): 100.0%
- DEATHS DUE TO TACHYARRHYTHMIA (60 MIN) Percentage ([2]; 0.5 mg/kg): 00.0%
- protection against arrhythmias (VT and VF) ([2]; 2.5 mg/kg): protected
- protection from deaths due to tachyarrhythmias ([2]; 2.5 mg/kg): completely protected
- actual incidence of mortality (value in parenthesis) ([2]; 2.5 mg/kg): (2)
- protection against arrhythmias (VT and VF) ([2]; 2.5 mg/kg, listed as 3:1): complete protection
- % INCIDENCE OF MORTALITY ([2]; 2.5 mg/kg): 33.3%
- % INCIDENCE OF MORTALITY ([2]; 2.5 mg/kg, listed as 3:1 ratio): 33.3%
- deaths due to conduction block (60 min), actual incidence (value in parenthesis) ([2]; 2.5 mg/kg): (2)
- deaths due to tachyarrhythmia (60 min), actual incidence (value in parenthesis) ([2]; 2.5 mg/kg): (0)
- actual incidence of VF (value in parenthesis) ([2]; 2.5 mg/kg): (0)*
- actual incidence of VT (value in parenthesis) ([2]; 2.5 mg/kg): (0)*
- % INCIDENCE OF VF ([2]; 2.5 mg/kg): 00.0%
- % INCIDENCE OF VT ([2]; 2.5 mg/kg): 00.0%
- DEATHS DUE TO CONDUCTION BLOCK (60 MIN) Percentage ([2]; 2.5 mg/kg): 100.0%
- DEATHS DUE TO TACHYARRHYTHMIA (60 MIN) Percentage ([2]; 2.5 mg/kg): 00.0%
- mortality ([2]; 0.5 and 2.5 mg/kg dose): low
- dose at which complete protection against VT was observed ([2]; guinea pig, in vivo, listed as 3:1 ratio (d:l)): 2.5 mg/kg
- cause of deaths ([2]; no dose stated): due to conduction abnormalities
- mortality compared with control groups ([2]; no dose stated): less than that of control groups
